Test results: PMC8800111 (The Journal of Biological Chemistry, 2021)

Assays:
Type in all cases: cell-based
[1] = target: proteins of U3A human fibrosarcoma cells (4462 proteins detected) (Homo sapiens, UniProt A0FGR8); details: protein ESYT2; U3A, 10 μM, 2 h
[2] = target: proteins of U3A human fibrosarcoma cells (4462 proteins detected) (Homo sapiens, UniProt O15066); details: protein KIF3B; U3A cells
[3] = target: proteins of U3A human fibrosarcoma cells (4462 proteins detected) (Homo sapiens, UniProt O75886); details: protein STAM2; U3A cells
[4] = target: proteins of U3A human fibrosarcoma cells (4462 proteins detected) (Homo sapiens, UniProt O95059); details: protein RPP14; soluble abundance after heat, U3A cells
[5] = target: proteins of U3A human fibrosarcoma cells (4462 proteins detected) (Homo sapiens, UniProt O95104); details: protein SCAF4; U3A cells
[6] = target: proteins of U3A human fibrosarcoma cells (4462 proteins detected) (Homo sapiens, UniProt P04920); details: protein SLC4A2; U3A cells
[7] = target: proteins of U3A human fibrosarcoma cells (4462 proteins detected) (Homo sapiens, UniProt P30050); details: protein RPL12; soluble abundance after heat, U3A cells
[8] = target: proteins of U3A human fibrosarcoma cells (4462 proteins detected) (Homo sapiens, UniProt P48643); details: protein CCT5; U3A cells
[9] = target: proteins of U3A human fibrosarcoma cells (4462 proteins detected) (Homo sapiens, UniProt P49915); details: protein GMPS; soluble abundance after heat, U3A cells
[10] = target: proteins of U3A human fibrosarcoma cells (4462 proteins detected) (Homo sapiens, UniProt P62487); details: protein POLR2G; U3A cells
[11] = target: proteins of U3A human fibrosarcoma cells (4462 proteins detected) (Homo sapiens, UniProt Q01826); details: protein SATB1; U3A cells
[12] = target: proteins of U3A human fibrosarcoma cells (4462 proteins detected) (Homo sapiens, UniProt Q15043); details: protein SLC39A14; soluble abundance after heat, U3A cells
[13] = target: proteins of U3A human fibrosarcoma cells (4462 proteins detected) (Homo sapiens, UniProt Q15370); details: protein TCEB2, U3A cells
[14] = target: proteins of U3A human fibrosarcoma cells (4462 proteins detected) (Homo sapiens, UniProt Q5PSV4); details: protein BRMS1L, U3A cells
[15] = target: proteins of U3A human fibrosarcoma cells (4462 proteins detected) (Homo sapiens, UniProt Q5VW36); details: protein FOCAD; U3A cells
[16] = target: proteins of U3A human fibrosarcoma cells (4462 proteins detected) (Homo sapiens, UniProt Q86TB9); details: protein PATL1; U3A cells
[17] = target: proteins of U3A human fibrosarcoma cells (4462 proteins detected) (Homo sapiens, UniProt Q8IUD2); details: protein ERC1, U3A cells
[18] = target: proteins of U3A human fibrosarcoma cells (4462 proteins detected) (Homo sapiens, UniProt Q8IVL0); details: protein NAV3, U3A cells
[19] = target: proteins of U3A human fibrosarcoma cells (4462 proteins detected) (Homo sapiens, UniProt Q92585); details: protein MAML1, U3A cells
[20] = target: proteins of U3A human fibrosarcoma cells (4462 proteins detected) (Homo sapiens, UniProt Q92688); details: protein ANP32B, U3A cells
[21] = target: proteins of U3A human fibrosarcoma cells (4462 proteins detected) (Homo sapiens, UniProt Q9BYN8); details: protein MRPS26; soluble abundance after heat, U3A cells
[22] = target: proteins of U3A human fibrosarcoma cells (4462 proteins detected) (Homo sapiens, UniProt Q9HAS0); details: protein C17orf75; U3A cells
[23] = target: proteins of U3A human fibrosarcoma cells (4462 proteins detected) (Homo sapiens, UniProt Q9HC36); details: protein RNMTL1; U3A cells
[24] = target: proteins of U3A human fibrosarcoma cells (4462 proteins detected) (Homo sapiens, UniProt Q9NQT5); details: protein EXOSC3; U3A cells
[25] = target: proteins of U3A human fibrosarcoma cells (4462 proteins detected) (Homo sapiens, UniProt Q9NS69); details: protein TOMM22; soluble abundance after heat, U3A cells
[26] = target: proteins of U3A human fibrosarcoma cells (4462 proteins detected) (Homo sapiens, UniProt Q9UJF2); details: protein RASAL2, U3A cells
[27] = target: proteins of U3A human fibrosarcoma cells (4462 proteins detected) (Homo sapiens, UniProt Q9UL16); details: protein CFAP45, U3A cells
[28] = target: proteins of U3A human fibrosarcoma cells (4462 proteins detected) (Homo sapiens, UniProt Q9UNN8); details: protein PROCR; U3A cells
[29] = target: proteins of U3A human fibrosarcoma cells (4462 proteins detected) (Homo sapiens, UniProt Q9Y5P4); details: protein COL4A3BP; soluble abundance after heat, U3A cells
[30] = target: proteins of U3A human fibrosarcoma cells (4462 proteins detected) (Homo sapiens, UniProt Q9Y6G3); details: protein MRPL42; soluble abundance after heat, U3A cells

Sequence of proteins of U3A human fibrosarcoma cells (4462 proteins detected) (Homo sapiens, UniProt Q8IVL0) (Q8IVL0 whole entry): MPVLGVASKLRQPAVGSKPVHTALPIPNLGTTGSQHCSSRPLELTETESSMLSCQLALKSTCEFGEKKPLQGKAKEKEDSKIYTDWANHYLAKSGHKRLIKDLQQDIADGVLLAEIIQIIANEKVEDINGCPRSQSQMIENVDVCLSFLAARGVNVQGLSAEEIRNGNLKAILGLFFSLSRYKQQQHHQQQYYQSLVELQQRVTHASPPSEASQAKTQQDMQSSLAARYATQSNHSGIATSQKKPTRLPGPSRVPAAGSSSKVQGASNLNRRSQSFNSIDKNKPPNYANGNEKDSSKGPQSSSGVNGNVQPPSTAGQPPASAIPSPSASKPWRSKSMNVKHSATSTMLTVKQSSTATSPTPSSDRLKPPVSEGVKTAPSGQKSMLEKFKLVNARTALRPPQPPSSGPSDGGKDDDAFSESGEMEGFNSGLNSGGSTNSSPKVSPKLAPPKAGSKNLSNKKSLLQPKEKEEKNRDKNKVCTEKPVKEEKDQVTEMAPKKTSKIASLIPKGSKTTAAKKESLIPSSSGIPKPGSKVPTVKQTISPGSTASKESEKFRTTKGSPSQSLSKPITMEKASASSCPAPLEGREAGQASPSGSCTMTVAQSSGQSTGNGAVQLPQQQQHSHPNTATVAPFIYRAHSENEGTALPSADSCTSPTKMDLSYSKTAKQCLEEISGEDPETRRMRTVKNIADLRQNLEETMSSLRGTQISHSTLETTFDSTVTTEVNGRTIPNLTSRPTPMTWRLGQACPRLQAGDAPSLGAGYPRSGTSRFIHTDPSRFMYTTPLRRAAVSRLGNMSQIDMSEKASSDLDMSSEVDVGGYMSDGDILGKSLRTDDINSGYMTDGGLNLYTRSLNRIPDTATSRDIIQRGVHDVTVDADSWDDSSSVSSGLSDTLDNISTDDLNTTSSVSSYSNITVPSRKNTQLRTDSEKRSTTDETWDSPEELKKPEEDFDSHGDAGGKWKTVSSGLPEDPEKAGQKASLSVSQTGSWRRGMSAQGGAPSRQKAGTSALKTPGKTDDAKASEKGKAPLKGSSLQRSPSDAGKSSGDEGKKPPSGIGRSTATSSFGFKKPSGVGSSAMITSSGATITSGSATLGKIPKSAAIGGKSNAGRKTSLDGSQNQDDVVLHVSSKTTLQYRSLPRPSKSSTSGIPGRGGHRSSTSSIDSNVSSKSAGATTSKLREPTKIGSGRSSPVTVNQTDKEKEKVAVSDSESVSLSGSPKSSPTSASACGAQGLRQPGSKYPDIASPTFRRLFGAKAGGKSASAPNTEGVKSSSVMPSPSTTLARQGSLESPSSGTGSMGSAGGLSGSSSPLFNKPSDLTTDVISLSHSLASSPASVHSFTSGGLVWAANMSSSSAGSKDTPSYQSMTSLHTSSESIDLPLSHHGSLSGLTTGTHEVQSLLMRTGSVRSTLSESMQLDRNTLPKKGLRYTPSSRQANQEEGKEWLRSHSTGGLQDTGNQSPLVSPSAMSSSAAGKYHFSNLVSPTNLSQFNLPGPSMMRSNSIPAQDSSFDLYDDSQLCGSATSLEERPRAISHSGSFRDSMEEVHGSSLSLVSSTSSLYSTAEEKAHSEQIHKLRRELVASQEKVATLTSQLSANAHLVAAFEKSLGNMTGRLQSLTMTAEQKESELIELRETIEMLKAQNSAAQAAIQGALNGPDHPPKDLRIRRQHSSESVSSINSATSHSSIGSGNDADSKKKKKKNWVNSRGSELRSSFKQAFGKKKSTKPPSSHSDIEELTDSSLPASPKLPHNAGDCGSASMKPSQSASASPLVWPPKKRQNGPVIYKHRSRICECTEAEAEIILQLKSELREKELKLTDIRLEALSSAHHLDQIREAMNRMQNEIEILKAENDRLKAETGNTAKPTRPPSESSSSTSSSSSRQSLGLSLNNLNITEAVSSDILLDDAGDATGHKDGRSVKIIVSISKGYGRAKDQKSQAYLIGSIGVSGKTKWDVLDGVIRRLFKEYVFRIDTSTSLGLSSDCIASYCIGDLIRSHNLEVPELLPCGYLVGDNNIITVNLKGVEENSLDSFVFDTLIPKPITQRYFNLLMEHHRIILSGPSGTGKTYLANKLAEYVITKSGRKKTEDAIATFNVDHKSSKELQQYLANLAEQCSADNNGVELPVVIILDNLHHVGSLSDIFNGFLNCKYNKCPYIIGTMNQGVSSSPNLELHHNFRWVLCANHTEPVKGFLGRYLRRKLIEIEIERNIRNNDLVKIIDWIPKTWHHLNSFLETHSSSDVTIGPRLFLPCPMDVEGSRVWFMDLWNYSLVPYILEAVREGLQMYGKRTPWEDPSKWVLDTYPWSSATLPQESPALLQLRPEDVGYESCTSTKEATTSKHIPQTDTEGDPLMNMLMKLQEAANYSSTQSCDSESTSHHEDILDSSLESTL
Sequence of proteins of U3A human fibrosarcoma cells (4462 proteins detected) (Homo sapiens, UniProt Q15043) (Q15043 31-492): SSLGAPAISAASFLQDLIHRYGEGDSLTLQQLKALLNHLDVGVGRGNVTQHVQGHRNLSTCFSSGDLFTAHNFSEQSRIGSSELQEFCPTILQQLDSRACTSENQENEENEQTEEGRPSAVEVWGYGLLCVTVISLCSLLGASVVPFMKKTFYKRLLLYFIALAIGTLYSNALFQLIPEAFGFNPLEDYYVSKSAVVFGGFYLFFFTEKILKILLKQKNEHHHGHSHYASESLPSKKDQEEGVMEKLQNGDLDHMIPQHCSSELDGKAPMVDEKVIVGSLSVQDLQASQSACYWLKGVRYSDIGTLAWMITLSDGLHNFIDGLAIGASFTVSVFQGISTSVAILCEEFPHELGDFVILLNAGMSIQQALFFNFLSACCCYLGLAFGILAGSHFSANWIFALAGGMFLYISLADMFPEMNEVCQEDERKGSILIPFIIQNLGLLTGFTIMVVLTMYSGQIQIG
Sequence of proteins of U3A human fibrosarcoma cells (4462 proteins detected) (Homo sapiens, UniProt Q92585) (Q92585 whole entry): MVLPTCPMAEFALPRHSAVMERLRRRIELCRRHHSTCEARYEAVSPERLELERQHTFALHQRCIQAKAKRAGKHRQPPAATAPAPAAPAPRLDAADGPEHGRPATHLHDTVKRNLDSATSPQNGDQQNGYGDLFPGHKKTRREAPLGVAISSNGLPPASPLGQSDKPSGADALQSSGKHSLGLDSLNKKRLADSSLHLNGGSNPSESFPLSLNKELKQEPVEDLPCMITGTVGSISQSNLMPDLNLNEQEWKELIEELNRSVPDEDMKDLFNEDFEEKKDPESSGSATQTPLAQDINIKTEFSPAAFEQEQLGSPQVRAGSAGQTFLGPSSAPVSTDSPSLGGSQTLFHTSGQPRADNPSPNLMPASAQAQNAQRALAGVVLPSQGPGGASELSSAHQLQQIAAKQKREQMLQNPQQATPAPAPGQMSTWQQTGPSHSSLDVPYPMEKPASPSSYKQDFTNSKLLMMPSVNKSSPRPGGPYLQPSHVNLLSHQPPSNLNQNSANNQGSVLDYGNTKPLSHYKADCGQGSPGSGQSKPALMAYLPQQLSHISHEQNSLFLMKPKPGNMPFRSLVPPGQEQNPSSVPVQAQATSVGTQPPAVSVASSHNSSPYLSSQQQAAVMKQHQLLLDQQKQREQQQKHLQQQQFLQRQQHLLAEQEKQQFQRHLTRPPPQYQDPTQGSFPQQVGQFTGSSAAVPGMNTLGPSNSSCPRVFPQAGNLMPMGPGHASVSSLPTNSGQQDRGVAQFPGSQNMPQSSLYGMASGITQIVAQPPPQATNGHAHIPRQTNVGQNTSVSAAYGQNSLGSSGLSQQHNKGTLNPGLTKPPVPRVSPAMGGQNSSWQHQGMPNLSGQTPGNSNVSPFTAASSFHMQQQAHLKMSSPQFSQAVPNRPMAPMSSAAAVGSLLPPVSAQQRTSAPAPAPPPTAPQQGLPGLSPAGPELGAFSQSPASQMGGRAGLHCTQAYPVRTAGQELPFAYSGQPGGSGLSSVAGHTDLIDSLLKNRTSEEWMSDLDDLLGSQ
Sequence of proteins of U3A human fibrosarcoma cells (4462 proteins detected) (Homo sapiens, UniProt O15066) (O15066 whole entry): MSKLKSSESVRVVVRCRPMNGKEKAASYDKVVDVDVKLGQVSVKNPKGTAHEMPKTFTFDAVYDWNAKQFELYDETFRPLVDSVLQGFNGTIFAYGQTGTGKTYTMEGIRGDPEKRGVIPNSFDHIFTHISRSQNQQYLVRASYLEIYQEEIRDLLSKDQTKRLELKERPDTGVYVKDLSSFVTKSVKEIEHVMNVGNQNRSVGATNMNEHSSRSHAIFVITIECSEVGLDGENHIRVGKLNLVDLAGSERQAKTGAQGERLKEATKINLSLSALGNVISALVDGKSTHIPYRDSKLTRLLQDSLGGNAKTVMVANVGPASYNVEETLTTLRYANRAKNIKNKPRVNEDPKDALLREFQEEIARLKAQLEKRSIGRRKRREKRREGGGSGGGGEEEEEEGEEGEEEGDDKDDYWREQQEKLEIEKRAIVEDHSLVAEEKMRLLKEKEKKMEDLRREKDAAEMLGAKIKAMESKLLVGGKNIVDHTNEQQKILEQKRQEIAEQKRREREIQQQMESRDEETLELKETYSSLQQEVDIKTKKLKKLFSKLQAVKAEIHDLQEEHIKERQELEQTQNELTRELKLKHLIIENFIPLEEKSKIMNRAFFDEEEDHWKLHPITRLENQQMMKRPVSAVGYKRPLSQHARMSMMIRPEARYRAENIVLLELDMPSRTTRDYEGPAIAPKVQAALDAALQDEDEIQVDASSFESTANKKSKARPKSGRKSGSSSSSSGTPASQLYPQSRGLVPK
Sequence of proteins of U3A human fibrosarcoma cells (4462 proteins detected) (Homo sapiens, UniProt Q9UNN8) (Q9UNN8 18-238): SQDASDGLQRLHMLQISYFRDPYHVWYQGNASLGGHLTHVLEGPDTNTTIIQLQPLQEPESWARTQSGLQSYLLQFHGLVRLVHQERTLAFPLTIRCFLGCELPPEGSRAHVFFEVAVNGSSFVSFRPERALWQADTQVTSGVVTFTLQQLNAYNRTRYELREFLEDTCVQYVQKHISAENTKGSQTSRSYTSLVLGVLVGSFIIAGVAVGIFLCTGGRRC
Sequence of proteins of U3A human fibrosarcoma cells (4462 proteins detected) (Homo sapiens, UniProt O95059) (O95059 whole entry): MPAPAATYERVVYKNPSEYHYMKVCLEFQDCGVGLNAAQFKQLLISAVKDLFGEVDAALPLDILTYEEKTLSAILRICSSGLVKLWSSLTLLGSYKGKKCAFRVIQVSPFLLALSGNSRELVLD
Sequence of proteins of U3A human fibrosarcoma cells (4462 proteins detected) (Homo sapiens, UniProt Q15370) (Q15370 whole entry): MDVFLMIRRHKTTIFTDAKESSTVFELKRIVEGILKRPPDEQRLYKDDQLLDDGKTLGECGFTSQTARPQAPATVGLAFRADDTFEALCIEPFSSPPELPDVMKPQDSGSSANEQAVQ

CCc1nc(N)nc(N)c1-c1ccc(Cl)cc1 [pyrimethamine]
Log2 (PYR/DMSO), ESYT2 [1]: 0.33 | Log2 (PYR/DMSO) [2]: 0.16 | Log2 (PYR/DMSO) [3]: 0.19 | Log2 (PYR/DMSO) [4]: 0.14 | Log2 (PYR/DMSO) [5]: 0.19 | Log2 (PYR/DMSO) [6]: 0.16 | Log2 (PYR/DMSO) [7]: 0.14 | Log2 (PYR/DMSO) [8]: 0.19 | Log2 (PYR/DMSO) [9]: 0.14 | Log2 (PYR/DMSO) [10]: 0.18 | Log2 (PYR/DMSO) [11]: 0.21 | Log2 (PYR/DMSO) [12]: 0.14 | Log2 (PYR/DMSO) [13]: -0.04 | Log2 (PYR/DMSO) [14]: -0.04 | Log2 (PYR/DMSO) [15]: 0.20 | Log2 (PYR/DMSO) [16]: 0.22 | Log2 (PYR/DMSO) [17]: -0.04 | Log2 (PYR/DMSO) [18]: -0.04 | Log2 (PYR/DMSO) [19]: -0.04 | Log2 (PYR/DMSO) [20]: -0.03 | Log2 (PYR/DMSO) [21]: 0.14 | Log2 (PYR/DMSO) [22]: 0.18 | Log2 (PYR/DMSO) [23]: 0.21 | Log2 (PYR/DMSO) [24]: 0.18 | Log2 (PYR/DMSO) [25]: 0.14 | Log2 (PYR/DMSO) [26]: -0.05 | Log2 (PYR/DMSO) [27]: -0.04 | Log2 (PYR/DMSO) [28]: 0.18 | Log2 (PYR/DMSO) [29]: 0.13 | Log2 (PYR/DMSO) [30]: 0.14
